Several values for one entry are separate records, joined by “and”; a condition that tells them apart may be missing. Equal values may be shown once.
Key:
Assay type in all cases: functional
Mus musculus [1] = experiment: Evaluation of Radioprotective effect of the intravenously administered compound (0.1 mg/kg on day 0,4,8) after irradiation on mice with 9 Gy of X-ray on day 10
Mus musculus [2] = experiment: Evaluation of Radioprotective effect of the intravenously administered compound (0.1 mg/kg on day 0,4,8) after irradiation on mice with 9 Gy of X-ray on day 35
Mus musculus [3] = experiment: Evaluation of Radioprotective effect of the intravenously administered compound (0.1 mg/kg on day 0,4,8) after irradiation on mice with 9 Gy of X-ray on day 25
Mus musculus [4] = experiment: Evaluation of Radioprotective effect of the intravenously administered compound (0.1 mg/kg on day 0,4,8) after irradiation on mice with 9 Gy of X-ray on day 20
Mus musculus [5] = experiment: Evaluation of Radioprotective effect of the intravenously administered compound (0.1 mg/kg on day 0,4,8) after irradiation on mice with 9 Gy of X-ray on day 15

Q: For `CCCCCCCCCCCCCCCCCCCCCC[C@@H](O)C(=O)N[C@@H](CO[C@H]1O[C@@H](CO)[C@H](O)[C@H](O)[C@@H]1O)[C@H](O)[C@H](O)CCCCCCCCCCCCCC`, which Survival (Mus musculus [1]) is on record?
A: 100%

Q: And the Survival (Mus musculus [2])?
A: 90% and 80%

Q: What about the Survival (Mus musculus [3]) of the same compound?
A: 80%

Q: What about the Survival (Mus musculus [4]) of the same compound?
A: 80%

Q: What about the Survival (Mus musculus [5]) of the same compound?
A: 100%

Q: How did the Survival (Mus musculus [1]) turn out when `CCCCCCCCCCCCCCCCCCCCCCCC(=O)NC(CO[C@H]1O[C@@H](CO)[C@H](O)[C@H](O)[C@@H]1O)[C@H](O)CCCCCCCCCCCCCCC` (single isomer, unassigned) was run?
A: 100%

Q: What about the Survival (Mus musculus [2]) of the same compound?
A: 90%

Q: What about the Survival (Mus musculus [3]) of the same compound?
A: 90%

Q: What about the Survival (Mus musculus [4]) of the same compound?
A: 90%

Q: And the Survival (Mus musculus [5])?
A: 100%

Q: How did the Survival (Mus musculus [1]) turn out when `CCCCCCCCCCCCCCCCCCCCCC[C@@H](O)C(=O)NC(CO[C@H]1O[C@@H](CO)[C@H](O)[C@H](O)[C@@H]1O)[C@H](O)CCCCCCCCCCCCCCC` (single isomer, unassigned) was run?
A: 100%

Q: What about the Survival (Mus musculus [2]) of the same compound?
A: 90%

Q: What about the Survival (Mus musculus [3]) of the same compound?
A: 90%

Q: What about the Survival (Mus musculus [4]) of the same compound?
A: 90%

Q: And the Survival (Mus musculus [5])?
A: 100%

Q: For `CCCCCCCCCCCCCCCCCCCCCCCC(=O)N[C@@H](CO[C@H]1O[C@@H](CO)[C@H](O)[C@H](O)[C@@H]1O)C(O)[C@H](O)CCCCCCCCCCCCCC` (single isomer, unassigned), which Survival (Mus musculus [1]) is on record?
A: 100%

Q: What about the Survival (Mus musculus [2]) of the same compound?
A: 90%

Q: And the Survival (Mus musculus [3])?
A: 90%

Q: And the Survival (Mus musculus [4])?
A: 90%

Q: What about the Survival (Mus musculus [5]) of the same compound?
A: 100% and 90%

Q: `CCCCCCCCCCCCCCC[C@@H](O)[C@H](CO[C@H]1O[C@@H](CO)[C@H](O)[C@H](O)[C@@H]1O)NC(=O)CCCCCCCCCCCCC` (stereo in doubt; form 1) was tested. Which Survival (Mus musculus [1]) did it give?
A: 100%

Q: What about the Survival (Mus musculus [2]) of the same compound?
A: 90%

Q: And the Survival (Mus musculus [3])?
A: 90%

Q: And the Survival (Mus musculus [4])?
A: 90%

Q: And the Survival (Mus musculus [5])?
A: 100% and 90%

Q: What does the source list for `CCCCCCCCCCCCCCC[C@@H](O)[C@H](CO[C@H]1O[C@@H](CO)[C@H](O)[C@H](O)[C@@H]1O)NC(=O)CCCCCCCCCCCCC` (stereo in doubt; form 2)?
A: Survival (Mus musculus [2]): 20%; Survival (Mus musculus [3]): 20%; Survival (Mus musculus [4]): 20%
